From patent publication US6737383B1, “Herbicidal oxadiazolidines” (priority 1999, dated 2004)

Columns and labels:
soybean = assay: Test B pre/postemergence soybean; format: in vivo, Glycine max
In short: (§1)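 Response is a visual 0-to-10 score relative to untreated plants, where 0 means no effect and 10 means complete control, taken twelve to sixteen days after application. Treatments went onto soil at planting and onto foliage of 1- to 4-leaf plants, using a surfactant-containing non-phytotoxic solvent.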

duck salad = assay: Test B flood test duck salad; format: in vivo, Heteranthera limosa; settings: for Plant response rating, Ducksalad (0 to 10 scale, 0 is no effect, 10 is complete control): Rate 62 g/ha, Pre-emergence; for Plant response rating, Ducksalad (0 to 10 scale, 0 is no effect, 10 is complete control) / Ducksalad plant response rating (0 to 10 scale, 0 is no effect, 10 is complete control): flood test species, visual evaluation after twelve to sixteen days; for Ducksalad plant response rating (0 to 10 scale, 0 is no effect, 10 is complete control): Rate 125 g/ha, under heading Pre-emergence
In short: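 Flood test on plants grown to the 2-leaf stage; treated plants kept in greenhouse twelve to sixteen days, then visually rated against controls on a 0 (no effect) to 10 (complete control) scale.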

cocklebur = assay: Test B pre/postemergence cocklebur; format: in vivo, Xanthium strumarium
In short: as §1

velvetleaf = assay: Test B pre/postemergence velvetleaf; format: in vivo, Abutilon theophrasti
In short: as §1

[1] = Postemergence, Rate 62 g/ha, scale of 0 to 10, 0 is no effect, 10 is complete control
[2] = Postemergence, Rate 125 g/ha, scale 0 to 10, 0 is no effect, 10 is complete control
[3] = Postemergence, Rate 500 g/ha, scale 0 to 10, 0 is no effect, 10 is complete control
[4] = Preemergence, Rate 62 g/ha, scale of 0 to 10 where 0 is no effect and 10 is complete control
[5] = Preemergence, Rate 125 g/ha, scale 0 to 10, 0 is no effect, 10 is complete control
[6] = Preemergence, Rate 500 g/ha, scale of 0 to 10 where 0 is no effect and 10 is complete control
[7] = Rate 250 g/ha, Postemergence, scale of 0 to 10 where 0 is no effect and 10 is complete control
[8] = Rate 250 g/ha, Pre-emergence (flood test species), scale 0 to 10, 0 is no effect, 10 is complete control
[9] = Rate 500 g/ha, Pre-emergence section of Table B, 0 to 10 scale (0 no effect, 10 complete control)
[10] = Postemergence, Rate 62 g/ha, scale 0 to 10, 0 is no effect, 10 is complete control
[11] = Postemergence, Rate 125 g/ha, scale of 0 to 10 where 0 is no effect and 10 is complete control
[12] = Preemergence, Rate 125 g/ha, scale of 0 to 10 where 0 is no effect and 10 is complete control
[13] = Preemergence, Rate 250 g/ha, scale 0 to 10 (0 no effect, 10 complete control)
[14] = Postemergence, Rate 250 g/ha, scale of 0 to 10, 0 is no effect, 10 is complete control
[15] = Rate 500 g/ha, Postemergence, scale 0 to 10, 0 is no effect, 10 is complete control

CC(C)N(C(=O)n1oc(=O)n(CC2CCC2)c1=O)c1ccc(F)cc1F [Compound 521]
Soybean plant response rating (soybean; [1]): 4
Soybean plant response rating (soybean; [2]): 4
Plant response rating, Soybean (soybean; [3]): 5
Plant response rating, Soybean (soybean; [4]): 0
Soybean plant response rating (soybean; [5]): 0
Soybean plant response rating (0 to 10 scale) (soybean; Preemergence, Rate 250 g/ha): 0
Soybean plant response rating (soybean; [6]): 0
Plant response rating, Soybean (soybean; [7]): 5
Plant response rating, Ducksalad (0 to 10 scale, 0 is no effect, 10 is complete control) (duck salad): 0
Ducksalad plant response rating (0 to 10 scale, 0 is no effect, 10 is complete control) (duck salad): 0
Ducksalad plant response rating (duck salad; [8]): 0
Ducksalad plant response rating (duck salad; [9]): 0
Cocklebur plant response rating (cocklebur; [1]): 0
Cocklebur plant response rating (cocklebur; [2]): 0
Plant response rating, Cocklebur (cocklebur; [3]): 0
Plant response rating, Cocklebur (cocklebur; [4]): 0
Cocklebur plant response rating (cocklebur; [5]): 0
Cocklebur plant response rating (0 to 10 scale) (cocklebur; Preemergence, Rate 250 g/ha): 0
Cocklebur plant response rating (cocklebur; [6]): 0
Plant response rating, Cocklebur (cocklebur; [7]): 0
Velvetleaf plant response rating (velvetleaf; [1]): 0
Velvetleaf plant response rating (velvetleaf; [2]): 0
Plant response rating, Velvetleaf (velvetleaf; [3]): 3
Plant response rating, Velvetleaf (velvetleaf; [4]): 0
Velvetleaf plant response rating (velvetleaf; [5]): 0
Velvetleaf plant response rating (0 to 10 scale) (velvetleaf; Preemergence, Rate 250 g/ha): 2
Velvetleaf plant response rating (velvetleaf; [6]): 3
Plant response rating, Velvetleaf (velvetleaf; [7]): 2

CC[C@H](C)n1c(=O)on(C(=O)N(c2ccc(Cl)cc2)C(C)C)c1=O [Compound 664]
Plant response rating, Soybean (soybean; [10]): 3
Soybean plant response rating (soybean; [11]): 4
Soybean plant response rating (soybean; [4]): 0
Soybean plant response rating (soybean; [12]): 0
Plant response rating, Soybean (soybean; [13]): 0
Plant response rating, Soybean (soybean; [6]): 0
Plant response rating, Ducksalad (0 to 10 scale, 0 is no effect, 10 is complete control) (duck salad): 0
Ducksalad plant response rating (0 to 10 scale, 0 is no effect, 10 is complete control) (duck salad): 0
Ducksalad plant response rating (duck salad; [8]): 0
Ducksalad plant response rating (duck salad; [9]): 0
Plant response rating, Cocklebur (cocklebur; [10]): 0
Cocklebur plant response rating (cocklebur; [11]): 0
Cocklebur plant response rating (cocklebur; [14]): 2
Cocklebur plant response rating (cocklebur; [4]): 0
Cocklebur plant response rating (cocklebur; [12]): 0
Plant response rating, Cocklebur (cocklebur; [13]): 0
Plant response rating, Cocklebur (cocklebur; [6]): 3
Cocklebur plant response rating (cocklebur; [15]): 6
Plant response rating, Velvetleaf (velvetleaf; [10]): 0
Velvetleaf plant response rating (velvetleaf; [11]): 0
Velvetleaf plant response rating (velvetleaf; [4]): 0
Velvetleaf plant response rating (velvetleaf; [12]): 0
Plant response rating, Velvetleaf (velvetleaf; [13]): 5
Plant response rating, Velvetleaf (velvetleaf; [6]): 5
Velvetleaf plant response rating (velvetleaf; [15]): 6

C=C(Cl)Cn1c(=O)on(C(=O)N(c2ccc(F)cc2F)C(C)C)c1=O [Compound 634]
Plant response rating, Soybean (soybean; [10]): 3
Plant response rating, Soybean (soybean; [11]): 2
Soybean plant response rating (soybean; [14]): 3
Soybean plant response rating (soybean; [4]): 0
Soybean plant response rating (soybean; [12]): 0
Plant response rating, Soybean (soybean; [13]): 0
Plant response rating, Soybean (soybean; [6]): 0
Plant response rating, Ducksalad (0 to 10 scale, 0 is no effect, 10 is complete control) (duck salad): 0
Ducksalad plant response rating (0 to 10 scale, 0 is no effect, 10 is complete control) (duck salad): 0
Ducksalad plant response rating (duck salad; [8]): 0
Ducksalad plant response rating (duck salad; [9]): 0
Plant response rating, Cocklebur (cocklebur; [10]): 1
Plant response rating, Cocklebur (cocklebur; [11]): 1
Cocklebur plant response rating (cocklebur; [14]): 2
Plant response rating, Cocklebur (cocklebur; Postemergence, Rate 500 g/ha, scale of 0 to 10 where 0 is no effect and 10 is complete control): 2
Cocklebur plant response rating (cocklebur; [4]): 0
Cocklebur plant response rating (cocklebur; [12]): 0
Plant response rating, Cocklebur (cocklebur; [13]): 0
Plant response rating, Cocklebur (cocklebur; [6]): 0
Plant response rating, Velvetleaf (velvetleaf; [10]): 0
Plant response rating, Velvetleaf (velvetleaf; [11]): 0
Velvetleaf plant response rating (velvetleaf; [14]): 3
Velvetleaf plant response rating (velvetleaf; [4]): 0
Velvetleaf plant response rating (velvetleaf; [12]): 0
Plant response rating, Velvetleaf (velvetleaf; [13]): 4
Plant response rating, Velvetleaf (velvetleaf; [6]): 6
